Test systems include 786-0 renal; HOP-62 NSCLC; MCF7 breast; NCI-H23 lung; SF-539 CNS; T-47D breast; UACC-257 melanoma; SN12C renal; SNB-75 CNS; TK-10 renal.
Assay in all cases: NCI tumour cell line growth inhibition, 48 h

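Results reflect a 48-hour exposure of cells in 96-well plates to compound at five concentrations. TGI marks complete inhibition of growth.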

Results on 17 molecules are retold here after PubChem BioAssay (NCI).

With `O=C(CSc1nc2ccccc2c(=O)n1-c1ccccc1)N=Nc1c(O)[nH]c2ccc(F)cc12`, the TGI with 786-0 renal was 5.05 µM; in the test on HOP-62 NSCLC, 6.77 µM; with MCF7 breast, 4.3 µM; in the test with NCI-H23 lung it was 9.21 µM; in the test on SF-539 CNS, 9.21 µM; in the test with T-47D breast, 3.97 µM. Further, the TGI in the test on UACC-257 melanoma came out at 6 µM.
On to `O=c1oc2ccccc2c(O)c1C(C/C(CCN1CCCC1)=N\Nc1ccccc1)c1ccccc1` (stereo not given), for which the TGI in the test on 786-0 renal, in the test on HOP-62 NSCLC, in the test with NCI-H23 lung, in the test with SF-539 CNS, in the test on SN12C renal and in the test with SNB-75 CNS was over 100 µM each time. Further, the TGI with TK-10 renal and in the test on UACC-257 melanoma was over 100 µM throughout.
`COC(=O)C(NC(=O)c1ccccc1)C(c1ccc(Cl)cc1)P(=O)(OC)OC` (stereo not given): the TGI with HOP-62 NSCLC, in the test with NCI-H23 lung, with SF-539 CNS, in the test with SN12C renal, in the test on SNB-75 CNS and with TK-10 renal was over 100 µM each time. This molecule registered a TGI in the test with UACC-257 melanoma of over 100 µM.
In the case of `O=c1c2ccccc2nc(N/N=C/c2ccccc2O)n1-c1ccccc1`, the TGI is 2.86 µM in the test on 786-0 renal; over 100 µM in the test on HOP-62 NSCLC; over 100 µM with MCF7 breast; over 100 µM in the test with NCI-H23 lung; over 100 µM in the test with SF-539 CNS; over 100 µM in the test on SN12C renal. For the same molecule, the TGI in the test with SNB-75 CNS, with TK-10 renal and with UACC-257 melanoma was over 100 µM each time.
In the case of `COC(=O)c1c(O)ccc2c1c1c(n2Cc2ccccc2)C(=O)c2ccccc2C1`, the TGI is over 100 µM with 786-0 renal; over 100 µM in the test with HOP-62 NSCLC; over 100 µM in the test with MCF7 breast; over 100 µM in the test with NCI-H23 lung; over 100 µM in the test with SF-539 CNS; 45.4 µM in the test with SN12C renal. Also, the TGI with SNB-75 CNS was 70.2 µM; in the test with TK-10 renal, over 100 µM; in the test with UACC-257 melanoma it was over 100 µM.
Regarding `COc1ccc(N2C(=O)C3c4[nH]c5ccccc5c4C4CCCCC4C3C2=O)cc1` (stereo not given), the TGI is 23.8 µM with 786-0 renal; 35.8 µM in the test with HOP-62 NSCLC; over 100 µM in the test with NCI-H23 lung; 32.8 µM with SF-539 CNS; over 100 µM in the test on SN12C renal; 17.5 µM in the test on SNB-75 CNS. Further, the TGI in the test with TK-10 renal is 58.8 µM; in the test with UACC-257 melanoma it was over 100 µM.
Consider `CCCCNC(=O)/N=C/c1c(O)c2ccccc2oc1=O`, for which the TGI with HOP-62 NSCLC, with NCI-H23 lung, in the test on SF-539 CNS, in the test with SN12C renal, in the test with TK-10 renal and in the test on UACC-257 melanoma was over 100 µM throughout.
`COc1ccc(C[C@H](N)C(=O)N2C[C@@H](CO)C[C@@H](n3ccc(=O)[nH]c3=O)C2)cc1`: the TGI with HOP-62 NSCLC, in the test on NCI-H23 lung, in the test with SF-539 CNS, in the test with SN12C renal and in the test on TK-10 renal was over 100 µM in each case.
With `COc1ccc(Sc2ccccc2N)cc1`, the TGI in the test with HOP-62 NSCLC is over 100 µM; with NCI-H23 lung it was over 100 µM; with SF-539 CNS, over 100 µM; in the test with SN12C renal it was over 100 µM; in the test on SNB-75 CNS it was 62.2 µM; in the test on TK-10 renal it was over 100 µM. Also, in the test on UACC-257 melanoma, the TGI was over 100 µM.
For `COc1ccc(C2=NN=C3C(c4ccccc4)=Nc4ccccc4N3C2)cc1`, the TGI is over 100 µM in the test with 786-0 renal; over 100 µM with HOP-62 NSCLC; 85 µM in the test with MCF7 breast; over 100 µM with NCI-H23 lung; over 100 µM in the test with SF-539 CNS; over 100 µM in the test on SN12C renal. For the same molecule, the TGI with TK-10 renal and in the test with UACC-257 melanoma was over 100 µM throughout.
As for `Cc1cc(S(=O)(=O)/N=C(/NN)NNc2cccc(C(F)(F)F)n2)c(S)cc1Cl`, the TGI was 47.9 µM in the test on 786-0 renal; 86.4 µM in the test on HOP-62 NSCLC; 43.6 µM with SF-539 CNS; over 100 µM in the test with SN12C renal; 32 µM with SNB-75 CNS; 40.7 µM with T-47D breast. The TGI with TK-10 renal is 51.8 µM; with UACC-257 melanoma it was 89.9 µM.
Turning to `NC(CSSCC(N)Cc1ccccc1)Cc1ccccc1` (stereo not given), the TGI with 786-0 renal, in the test on HOP-62 NSCLC, with NCI-H23 lung, in the test with SN12C renal, in the test on TK-10 renal and in the test with UACC-257 melanoma was over 100 µM each time.
Turning to `COc1ccc2c(c1)OC[C@@H]1c3cc(O)c(OCc4ccccc4)cc3O[C@H]21`, the TGI is over 100 µM with 786-0 renal; over 100 µM with HOP-62 NSCLC; 67.9 µM in the test with NCI-H23 lung; over 100 µM in the test with SF-539 CNS; 65.4 µM in the test with SNB-75 CNS; 96.4 µM in the test on TK-10 renal. The molecule further returned a TGI in the test on UACC-257 melanoma of 51.4 µM.
As to `Cc1ccc(-n2cc([Si](C)(C)C)nn2)s1`, the TGI in the test on 786-0 renal, in the test on MCF7 breast, in the test on NCI-H23 lung, in the test on SF-539 CNS, in the test on SN12C renal and in the test on T-47D breast was over 100 µM each time. The TGI with TK-10 renal and in the test on UACC-257 melanoma was over 100 µM throughout.
With `O=C(N/N=C/c1cc(Br)cc(Br)c1[O-])c1ccccc1O.O=C(N/N=C/c1cc(Br)cc(Br)c1[O-])c1ccccc1O.[Ni+2]`, the TGI in the test with HOP-62 NSCLC is 1.82 µM; with NCI-H23 lung, 2.65 µM; in the test on SF-539 CNS it was 0.72 µM; in the test with SNB-75 CNS, 4.9 µM; in the test with TK-10 renal it was 1.87 µM; with UACC-257 melanoma it was 2.28 µM.
Regarding `COC(=O)C1=C(C(=O)OC)SC2(S1)C(C(=O)OC)=C(C(=O)OC)Sc1c2ssc1=NC(C)(C)C`, the TGI in the test with 786-0 renal is 2.62 µM; in the test on HOP-62 NSCLC it was 15.5 µM; in the test on MCF7 breast it was 3.22 µM; with NCI-H23 lung, 6.66 µM; with SF-539 CNS, 2.69 µM; in the test with SN12C renal, 2.52 µM. Also, the TGI in the test on SNB-75 CNS stood at 2.92 µM; in the test with TK-10 renal, 3.27 µM; in the test on UACC-257 melanoma, 3.05 µM.
On to `COC1OC2=CCC3C(=O)NC(=O)C3C2[C@H](OCc2ccccc2)C1OCc1ccccc1` (stereo not given in full), for which the TGI in the test with HOP-62 NSCLC was 31.7 µM; with NCI-H23 lung it was 4.7 µM; with SF-539 CNS it was 31 µM; in the test on SN12C renal it was 3.14 µM; in the test on SNB-75 CNS, 31.5 µM; in the test on TK-10 renal, 3.12 µM. In the test on UACC-257 melanoma, this molecule had a TGI of 3.68 µM.
